# “Also recorded” adds a separate entry of the source.
# How the values were obtained:
# [1] = system: tuberculosis bacteria; settings: through targeting the regulatory protein ClpC1; cited from earlier work
# [2] = cited from earlier work
# Procedure: Compound 3 (12 mg) was obtained as a white solid. This compound was afforded after two reverse-phase column chromatography. […] In the ^1H NMR spectrum, ten signals of protons appeared at δH 3.57–3.54 (2H, m, α-H of Leu^1 & Leu^2), 3.50 (1H, d, J = 3.5, α-H of Ile), 3.43 (3H, d, J = 4.5, α-H of Ala^1, Ala^2, and Ala^3), 1.97–1.95 (1H, m, β-H of Ile), 1.83–1.77 (2H, m, γ-H of Leu^1, and Leu^2), 1.83–1.59 (4H, m, β-H of Leu^1, and Leu^ ...
# [3] = system: recombinant ClpC1 protein; type: biochemical; settings: compounds at 0.1 µM, 1.0 µM, and 10.0 µM, released phosphate, BIOMOL Green, absorbance at 620 nm; for Affection of ATPase activity of ClpC1: controls ecumicin and rufomycin, values only in Figure 5
# [4] = system: ClpC1; settings: cited from earlier work; for ClpC1 inhibition: no reference at the place
# [5] = cited from earlier work; remark: listed apart in the source
# Procedure: Compound 1 (7 mg) was afforded after purification using Sephadex and silica gel column chromatography, followed by thin-layer chromatography. This compound was obtained as a colorless powder.
# [6] = system: leukocyte; settings: cited from earlier work
# Procedure: (§1) Compound 2 (3 mg) was yielded after column chromatography on normal-phase silica gel and the Sephadex LH20 column. Compound 2 (3 mg) was obtained as a white powder. […] The NMR data of compound 2 indicated a lactone ring structure consisting ...
# [7] = cited from earlier work; remark: listed apart in the source
# Procedure: as §1
# [8] = system: HCV NS3 protease; settings: cited from earlier work
# Procedure: as §1
# [9] = system: Gr (+) and Gr (-) microbacteria; settings: in vitro; against Gr (+) and Gr (-) microbacteria; cited from earlier work
# Excerpt: Streptomyces aureus is a species of actinomycete belonging to the genus Streptomyces. Its spores are spherical or oval in shape, and the average diameter is about 0.9 μ in width and 1.2 μ in length. […] The morphological characteristics of the S. aureus depend on different nutritional environments. A previous study reported that many active secondary metabolites were produced by this actinomycete strain. Alkaloid azirinomycin and 3-methyl-2H-azirine-2-carboxylic acid isolated fr ...
# [10] = system: ClpC1; settings: cited from earlier work
# [11] = system: ClpC1/CplP1/ClpP2; settings: via change in configuration of ClpC1; cited from earlier work
molecule,measurement,setting,value
Cyclomarin A,anti-tuberculosis activity,[1],anti-tuberculosis activity through the mechanism of targeting the regulatory protein ClpC1 of tuberculosis bacteria
halolitoralin A [compound 3],anthelmintic activity,[2],anthelmintic activity
same,antimicrobial activity,[2],potent antimicrobial activity
same,antitumor activities,[2]; in vitro,antitumor activities in vitro
same,ATP hydrolysis effect of ClpC1 compared with ecumicin,[3]; comparison with standard compound ecumicin,"similarly to ecumicin, but with lower ATP hydrolysis affection; also recorded: affected the ATPase activity of ClpC1 in a similar way to the standard compound ecumicin; also recorded: showed the effect on the ATPase hydrolysis activity of ClpC1, acting similar way to the antibiotic eucumicin"
same,Affection of ATPase activity of ClpC1,[3],effective for the ATPase hydrolysis of the ClpC1 protein
rufomycin,effect on ATPase activity of ClpC1,[4],shown to affect the ATPase activity of ClpC1
same,ClpC1 inhibition,[4],inhibited ClpC1
lassomycin,effect on ATPase activity of ClpC1,[4],shown to affect the ATPase activity of ClpC1
same,ClpC1 inhibition,[4],inhibited ClpC1
"O=C1CCC(=O)N(O)CCCCCNC(=O)CCC(=O)N(O)CCCCCNC(=O)CCC(=O)N(O)CCCCCN1 [compound 1, nocardamin]",Affection of ATPase activity of ClpC1,[3],did not affect the ATPase activity of ClpC1
same,antimalarial activity,[5],antimalarial activity
same,siderophore activity,[5],showed siderophore activity
cyclomarin,effect on ATPase activity of ClpC1,[4],shown to affect the ATPase activity of ClpC1
"O=c1ccoc(=O)o1 [compound 2, 4H-1,3-dioxine-2,4-dione]",Affection of ATPase activity of ClpC1,[3],did not affect the ATPase activity of ClpC1
same,leukocyte inhibitory effects,[6],leukocyte inhibitory effects
same,antioxidant activity,[7],possesses antioxidant activity
same,IC50,[8],78.9 µM
CC1=NC1C(=O)O (centres unmarked) [azirinomycin],antibiotic activity,[9],exhibited broad-spectrum antibiotic activity in vitro
ecumicin,binding site on ClpC1,[10],"binded to the allosteric site of ClpC1, causing a change in configuration"
same,effect on ATPase activity of ClpC1,[4],shown to affect the ATPase activity of ClpC1
same,ClpC1 inhibition,[4],inhibited ClpC1
same,effect on proteolysis,[11],affecting proteolysis of ClpC1/CplP1/ClpP2

# — publication PMC10856564, “Metabolites from Streptomyces aureus (VTCC43181) and Their Inhibition of Mycobacterium tuberculosis ClpC1 Protein” (Molecules, 2024)
